Earlier results in US6683056B2, “O-aryl glucoside SGLT2 inhibitors and method” (Bristol-Myers Squibb Company, priority 2000, dated 2004).

How the values were obtained:
[1] = biological target: T1, SGLT1 (Homo sapiens, UniProt P13866)
T1 sequence (P13866 1-664): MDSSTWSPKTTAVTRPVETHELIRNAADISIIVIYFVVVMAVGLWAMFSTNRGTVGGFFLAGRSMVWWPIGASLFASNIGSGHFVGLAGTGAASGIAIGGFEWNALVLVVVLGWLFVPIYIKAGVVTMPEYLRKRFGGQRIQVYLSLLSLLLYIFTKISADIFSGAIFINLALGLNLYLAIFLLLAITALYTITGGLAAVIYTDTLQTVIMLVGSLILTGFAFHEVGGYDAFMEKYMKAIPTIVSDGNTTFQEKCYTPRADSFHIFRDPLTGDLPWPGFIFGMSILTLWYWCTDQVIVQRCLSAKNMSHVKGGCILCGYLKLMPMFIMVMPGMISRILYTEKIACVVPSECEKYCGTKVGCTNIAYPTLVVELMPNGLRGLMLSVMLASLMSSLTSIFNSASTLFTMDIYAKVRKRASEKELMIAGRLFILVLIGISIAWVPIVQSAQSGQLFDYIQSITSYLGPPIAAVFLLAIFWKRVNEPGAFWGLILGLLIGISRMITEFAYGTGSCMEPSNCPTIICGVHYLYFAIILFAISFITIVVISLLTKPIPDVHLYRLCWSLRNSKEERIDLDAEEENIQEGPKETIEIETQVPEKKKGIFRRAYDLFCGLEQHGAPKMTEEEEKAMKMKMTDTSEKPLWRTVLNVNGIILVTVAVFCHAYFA

[2] = biological target: T2, SGLT2 (Homo sapiens, UniProt P31639); details: read-out: Km values for uptake
T2 sequence (P31639 1-672): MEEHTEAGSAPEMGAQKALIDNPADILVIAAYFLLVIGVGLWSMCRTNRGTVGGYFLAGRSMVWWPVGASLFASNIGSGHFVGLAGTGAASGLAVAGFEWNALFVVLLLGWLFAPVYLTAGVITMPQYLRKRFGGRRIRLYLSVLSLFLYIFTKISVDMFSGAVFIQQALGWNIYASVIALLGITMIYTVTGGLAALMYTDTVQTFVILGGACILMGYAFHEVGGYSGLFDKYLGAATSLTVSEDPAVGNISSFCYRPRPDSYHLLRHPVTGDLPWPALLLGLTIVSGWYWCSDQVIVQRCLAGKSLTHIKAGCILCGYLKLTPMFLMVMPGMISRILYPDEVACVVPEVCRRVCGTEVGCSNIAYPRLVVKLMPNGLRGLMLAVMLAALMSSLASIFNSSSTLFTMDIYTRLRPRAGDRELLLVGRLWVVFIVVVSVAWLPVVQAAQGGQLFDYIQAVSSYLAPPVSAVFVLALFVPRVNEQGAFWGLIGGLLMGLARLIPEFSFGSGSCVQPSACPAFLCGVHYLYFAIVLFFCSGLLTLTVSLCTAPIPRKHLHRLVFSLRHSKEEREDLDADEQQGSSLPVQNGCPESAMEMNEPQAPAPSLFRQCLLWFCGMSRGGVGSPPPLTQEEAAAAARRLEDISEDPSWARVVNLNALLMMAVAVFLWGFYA

[3] = tested on: facilitative glucose transporters (GLUTs)
[4] = tested on: several diabetic rodent models and one canine diabetes model
[5] = tested on: normal animals; details: despite the presence of glycosuria
[6] = oral

In the case of `CO[C@H]1O[C@H](CO)[C@@H](O)[C@H](O)[C@H]1O` [AMG, α-methyl-D-glucopyranoside], the Km ([1]; SGLT1, read-out: Km values for uptake) is given as 400 µM and the Km [2] is given as 1600 µM.

For `O=C[C@H](O)[C@@H](O)[C@@H](O)[C@H](O)CO` [galactose], the substrate specificity ([1]; SGLT1 versus SGLT2) is listed as “substrate for SGLT1 only”.

For `O=C(CCc1ccc(O)cc1)c1c(O)cc(O)cc1O` [phloretin], the “inhibition of facilitated glucose transport” value [3] is given as “potent inhibitor of facilitated glucose transport”.

In the case of `O=C(CCc1ccc(O)cc1)c1c(O)cc(O)cc1O[C@@H]1O[C@H](CO)[C@@H](O)[C@H](O)[C@H]1O` [phlorizin], the “in vivo effect on glucose excretion and plasma glucose” value ([4]; diabetic rodent models and one canine diabetes model) is listed as “promoting glucose excretion, lowering fasting and fed plasma glucose, and promoting glucose utilization without hypoglycemic side effects”, the “adverse effects of treatment” value ([4]; treatment for as long as two weeks) is listed as “No adverse effects on plasma ion balance, renal function or renal morphology” and the “hypoglycemic or other adverse effects” value [5] is listed as “no hypoglycemic or other adverse effects”. The “stability in the gut” value [6] was “hydrolyzed in the gut to its aglycone phloretin”.
